Tests used:
[1] = tested on: small intestinal epithelium of irradiated mice; test: Pathomorphological analysis of small intestine and skin after gamma irradiation; assay type: in vivo, mouse; settings: for intestinal morphology 5 days after 14 Gy: pretreated mice, villi/crypt structure; for radiation-induced disappearance of sebaceous glands: skin, 5 days after 14 Gy
Description: Tissue samples of intestinal mucosa were taken 5 days after 14 Gy irradiation from mice pretreated with flagellin and control mice. Control animals were treated with 5.0 μg/mouse (0.2 mg/kg) bacterial RNA-polymerase. […] Tissue samples (small intestine and skin from the back) were also obtained from mice treated with the AA′ fragment. The results shown in FIG. 17 are areas of typical morphology observed over a set of at least 3 mice.
Flagellin (and CBLB502) may induce NF-κB activity via binding to TLR5. Accordingly, CBLB502-mediated radioprotection may be dependent on the presence and activity of TLR5. MOLF/Ei mice are a known natural model of TLR5 deficiency (Sebastiani G., et. al., Genomics. 2000 Mar. 15; 64(3):230-40). To verify that CBLB502-mediated radioprotection is indeed TLR5-dependent, we tested the protection of small intestine from radiation by CBLB502 in MOLF/Ei and NIH-Swiss mice (FIG. 35). Both strains of mice were given 0.2 mg/kg CBLB502 (AA′) or PBS 0.5 hr before 15 Gy of gamma-irradiation. The samples of small intestine were obtained 4 days after irradiation, stained by hematoxylin-eosin and subjected to pathomorphological analysis.

mice = settings: known from literature; cited from earlier work
[2] = tested on: vascular endothelial cells of villi; test: TUNEL assay of apoptosis in intestinal tissue after irradiation; assay type: in vivo, mouse; settings: 5 hours post irradiation, pretreated mice
From the text: In addition to purely histological observation of cell death and survival, we performed more specialized tests of apoptotic cell death in intestinal tissue using a TUNEL assay, which detects apoptosis-associated DNA fragmentation. These experiments allowed us to define with a high degree of probability cellular populations that are depleted by radiation and rescued by flagellin fragment treatment. The earliest radiation-induced alterations detectable in the small intestine after treatment with IR is apoptosis occurring in vascular endothelial cells of villi, which is seen as early as 5 hours post treatment (FIG. 17B). […] Effective protection of endothelial cells of the small intestine by the flagellin fragment may be due to expression of TLR5 in these cells.

[3] = tested on: NIH3T3-derived sarcoma and B16 melanoma tumors; test: Tumor sensitivity to radiation treatment in syngeneic mouse tumor models; assay type: in vivo
Description: Left Panel: NIH3T3-derived sarcoma cells were injected s.c. in NIH-Swiss mice. When tumors reached 7-10 mm in diameter, mice received three 4.3 Gy doses of total body irradiation, with or without pretreatment with AA′. […] U/t: untreated; AA′: AA′ with no irradiation; 3×4Gy: irradiation only; 3×4Gy+AA′: AA′ and irradiation. (The shape of curves reflects slow growth of tumors that is a characteristic of this model). […] Right Panel: The experiment was done in the same way with another syngeneic mouse tumor model: B16 melanoma (C57BL6 background). Treatment was applied when tumors reached 4-5 mm in diameter and involved three subsequent 4 Gy doses of total body gamma radiation applied with or without pretreatment with AA′ (30 min. before irradiation, 5 μg/mouse).
The ultimate test of a potential radioprotective agent in cancer treatment is tumor selectivity, its ability to protect normal tissues while providing no or little protection to the tumor. We injected 10 NIH-Swiss mice subcutaneously, in both flanks (20 tumors total), with 2×10^6 cells of syngeneic sarcoma cell line model (NIH3T3-derived and spontaneously transformed sarcoma with p53 inactivated by dominant negative inhibitor GSE56). When tumors reached the size of 5-7 mm in diameter (day 5), the mice were injected subcutaneously with 0.2 mg/kg of AA′ or saline vehicle and irradiated 1 hours later with […] of total-body y-irradiation (3×4.3 Gy=12.9 Gy total dose). Injections and irradiations were done at days 5, 6 and 7.

[4] = Pharmacokinetics: plasma levels by sandwich ELISA; assay type: in vivo, mouse; settings: ICR mice
Description: Pharmacokinetic parameters (effective concentration and the duration of drug the presence in the organism) may be important for route, dose and time of drug administration. The pharmacokinetics of CBLB502 (AA′) were thus tested for four common routes of injection: intravenous (i.v.), subcutaneous (s.c.), intraperitoneal (i.p.) or intramuscular (i.m.). A radioprotective dose of CBLB502 (AA′), 0.2 mg/kg, was injected in 12-15 week old ICR mice and plasma samples were collected at the specified times after injection (at least 3 mice/point). The levels of CBLB502 in plasma were measured by sandwich ELISA using known concentrations of CBLB502 spiked in the control ICR plasma for calibration.

small intestinal crypts = test: BrdU incorporation in small intestinal crypts; assay type: in vivo, mouse
From the text: Besides a direct inhibition of apoptosis, temporary halt of proliferation followed by repair may be an alternative mechanism of radioprotection, and has been described for other radioprotectors such as TGF-β3 (Booth D., et. al., Int J Cancer. 2000 Apr. 1; 86(1):53-9). Accordingly, we decided to examine the possible influence of CBLB502 (AA′) on the proliferative activity of the cells in small intestine (with and without irradiation) during the first hours after its administration (FIG. 32). CBLB502 or PBS was injected i.p. in mice, followed after 30 min by 15 Gy irradiation (if used). 2 hr after injection (1.5 hr after irradiation if it was applied), BrdU was injected intraperitoneally. Samples of small intestine were obtained after additional 1.5 hours.
We next determined the duration of the CBLB502-induced growth arrest in small intestine. CBLB502 or PBS was injected i.p. in mice, BrdU was injected 1 or 4 hours later and samples of small intestine were obtained after additional 1.5 hours from several mice (samples from three mice are shown) (FIG. 33).

[5] = tested on: NIH Swiss mice treated with cisplatinum
[6] = Blood urea (QuantiChrom Urea Assay Kit) as renal toxicity of cisplatinum; settings: 0.04 mg/kg s.c., Day 4 post-treatment, n=3
From the text: Urea was detected in mouse blood serum at Day 4 post-treatment using a QuantiChrom Urea Assay Kit (BioAssay Systems).

[7] = 0.2 mg/kg 0.5 hr before 15 Gy, samples 4 days after irradiation
[8] = CBLB502 0.04 mg/kg s.c. 30 min before cisplatinum 20 mg/kg i.p.

In the case of “flagellin: Salmonella dublin FliC flagellin, 505 amino acids, SEQ ID NO: 1; recombinant full-length protein”, the “morphology of small intestinal epithelium after 15 Gy” value ([1]; i.v. 0.25 mg/kg, 15 Gy, HE stained sections) is reported as “close to normal morphology”, the “intestinal morphology 5 days after 14 Gy” value [1] is reported as “near-normal intestinal morphology” and the “radiation-induced disappearance of sebaceous glands” value [1] is reported as “prevented”. For the same substance, the highest tolerable dose (mice) was 300 μg/mouse.
With “AA′: flagellin fragment (1-177)-Linker-(402-505), SEQ ID NO: 8” the “intestinal morphology after 15 Gy, NIH-Swiss (TLR5 wild type) mice” value [1, 7] was “preservation of intestinal morphology”, the “intestinal morphology after 15 Gy, TLR5-deficient MOLF/Ei mice” value [1, 7] was “no improving effect” and the “intestinal morphology 5 days after 14 Gy” value [1] was “near-normal intestinal morphology”. The “radiation-induced disappearance of sebaceous glands” value [1] was “prevented”, the “apoptosis in vascular endothelial cells of villi” value [2] was “almost completely blocked” and the “mice cured and surviving radiotherapy plus AA′” value ([3]; 3×4.3 Gy with AA′, irradiated-only mice all died by day 18) was 100%. For the same substance, the “tumor growth in unirradiated mice” value ([3]; AA′ without irradiation) was “decrease in the growth rate of tumors”, the “radiation-induced shrinkage of tumors” value ([3]; s.c. 0.2 mg/kg 1 hour before each of 3 irradiations, sarcoma in NIH-Swiss mice) was “enhanced” and the “effect on radiosensitivity of tumors” value ([3]; sarcoma and B16 melanoma) was “no effect”. The “time with significant (>5 ng/ml) levels in mouse plasma” value ([4]; 0.2 mg/kg intramuscular injection) was > 3 h, the “disappearance from the bloodstream” value ([4]; 0.2 mg/kg intravenous injection) was “more rapid disappearance” and the “levels and persistence in plasma by route” value ([4]; 0.2 mg/kg, intramuscular or intraperitoneal injection) was “highest levels and longest persistence”. The “incorporation of BrdU in intestine, BrdU after 1 hour” value (small intestinal crypts; BrdU injected 1 hour after CBLB502) was “reduced as compared to control”, the “incorporation/DNA synthesis, BrdU after 4 hr” value (small intestinal crypts; BrdU injected 4 hr after CBLB502) was “even higher than in control” and the “level of BrdU incorporation, irradiated mice” value (small intestinal crypts; i.p. 30 min before 15 Gy, NIH-Swiss mice) was “strongly reduced”. The “DNA synthesis (BrdU incorporation) in crypts, no irradiation” value (small intestinal crypts; i.p., BrdU 2 hr after injection, NIH-Swiss mice) was “nearly undetectable”, the “mean weight loss on any given day, cisplatinum 10 mg/kg with CBLB502” value ([5]; CBLB502 0.04 mg/kg 30 min prior, n=11) was ≤ 15% and the “weight response, cisplatinum 10 mg/kg with CBLB502” value ([5]; CBLB502 0.04 mg/kg s.c. 30 min before cisplatinum 10 mg/kg i.p.) was “not losing weight”. For the same substance, the “maximum weight loss, cisplatinum 20 mg/kg with CBLB502” value [5, 8] was ≤ 20%, the “survival of animals, cisplatinum 20 mg/kg with CBLB502” value [5, 8] was 100% and the “behavior, cisplatinum with single injection of CBLB502” value ([5]; FIG. 39D) was “active animals”. For the same substance, the “deaths, cisplatinum 10 mg/kg with CBLB502” value ([5]; FIG. 39 experiment) was “No deaths”, the “mice that died, cisplatinum 10 mg/kg with CBLB502” value ([5]; death at Day 13, remaining mice survived to at least Day 30) was “one mouse out of eleven” and the “mean OD 490 (blood urea), CLBL502 alone” value [6] was “less than 0.50”.

— patent US8580321B2, “Method for reducing the effects of chemotherapy using flagellin related polypeptides” (priority 2003, dated 2013)
